Usually IC50 stands for the concentration at which inhibition is half-maximal.

Data set [1] concerns primary human hepatocytes. The experiment in a line: Cell viability assay (CTG) on primary human hepatocytes. The following applies: for IC50 / effect on cell viability: primary human hepatocytes. The method, then: The ‘trivalent-GalNAc’ as depicted in FIGS. 1 and 8 is a typical (GalNAc)3Tris conjugate suitable for coupling to an effector molecule or to saponin. […] Primary hepatocytes express receptor at high density—allow for targeting.
Primary hepatocytes which highly express ASGPR1 (ASGPR1*) and hepatocyte cells of cell-line Huh7 (ASGPR1^+/−) were treated with a concentration range of trivalent-GalNAc-SO1861 (TrivalentGalNAc-SPT001), either or not in the presence of 10 μM CD71-saporin (monoclonal antibody OKT-9 targeting CD71 conjugated to the protein toxin saporin; FIG. 30D).
After treatment the cells were incubated for 72 hr at 37° C. before the cell viability was determined by a CTG-assay, performed according to the manufacturer's instruction (CellTiter-Glo® 2.0 Cell Viability Assay, Promega). Briefly, the cell plate was first equilibarated to RT for 30 minutes. Next, to each well containing 120 μL treatment media 120 μL CTG solution was added. The plate briefly mixed (10 sec, 600 rpm) and incubated for approximately 10 minutes in the dark at RT. Subsequently, the luminescence signal was measured on a Spectramax ID5 plate reader (Molecular Devices). For quantification, the background signal of ‘medium only’ wells was subtracted from all other wells before the cell viability percentage of treated/untreated cells was calculated by dividing the background corrected signal of treated wells over the background corrected signal of the untreated wells (×100).
Cryopreserved primary human hepatocytes (Cytes Biotechnologies S.L., Spain) were thawed in hepatocyte thawing media (Cytes Biotechnologies S.L., Spain). Cells were re-suspended in hepatocyte plating media (Cytes Biotechnologies S.L., Spain). Cells were seeded onto collagen-I coated plates at a density of 215.600 cells/well or 66.600 cells/well for the 48 or 96-well plates (Greiner BioOne). Cells were pre-cultured for 4-6 hrs at 37° C. allowing for cell attachment to cell culture plates before the start of treatment. Plating medium was replaced by 315 μl or 108 μl maintenance media (Cytes Biotechnologies S.L., Spain), after which conjugates were added from a 10× concentrated stock solution in PBS. Plates were incubated for 72 hr at 37° C. being harvested for gene expression and cell viability analysis.

Data set [2] deals with ApoB. The experiment in a line: ApoB gene silencing (qPCR) in Huh7 cells. The following applies: for IC50: + 4000 nM trivalent-GalNAc-L-SO1861. It counts as cell-based, human. The method, then:
(§1) ApoB gene silencing in HepG2 (ASGPR1*) cells or Huh7 (ASPGR1^+/−) was determined. […] Thus, a conjugate comprising a labile bond between any two molecules forming the conjugate or comprised by the conjugate, will be cleaved at a position in the labile linker, therewith dissociating the two linked or bound molecules. An example is the cleavage of a hydrazone bond under acidic conditions as apparent in the endosome and lysosome of mammalian cells such as human cells.
(§2) ApoB gene silencing HepG2 (ASGPR1*) cells and Huh7 (ASPGR1^+/−) cells was determined.
(§3) RNA from cells was isolated and analysed according to standard protocols (Biorad). qPCR primers that were used are indicated in Table A2.

In data set [3] the test system is ApoB protein. Description: ApoB protein expression by Huh7 cells. It is filed as cell-based, human.
Data set [4] relates to ApoB. Description: ApoB gene silencing (qPCR) in HepG2 cells. It counts as cell-based, human. The method, then: as §1, §2, §3
A general note: In qPCR the cycle at which signal appears reflects the starting amount.

Data set [5] relates to ApoB RNA. Description: ApoB RNA expression analysis on primary human hepatocytes. It counts as cell-based. The method, then:
RNA from cells was isolated using TRI Reagent® Solution (Thermo Scientific) according to the manufacturer's instruction. Conversion into cDNA was performed using iScript™ cDNA Synthesis Kit (BioRad) using standard protocols. ApoB expression levels and levels of specific hepatocyte housekeeping genes were determined using quantitative real-time PCR assays (qRT-PCR) using iTaq™ Universal SYBR® Green Supermix (BioRad) and the Light Cycler 480 (Roche Diagnostics, Rotkreuz, Switzerland) with specific DNA primers, listed in Table A4. Analysis was done by the ΔCt method to determine ApoB expression relative to 2 hepatocyte-specific housekeeping control mRNAs. Each analysis reaction was performed in triplicate.

In data set [6] the test system is HSP27. The experiment in a line: HSP27 gene silencing (qPCR) in HepG2 cells. It is filed as cell-based, human. The following applies: + 4000 nM SO1861-EMCH. The method, then:
(§4) HSP27 gene silencing in HepG2 and Huh7 cells was determined.
as §3

In data set [7] the test system is HSP27. Description: HSP27 gene silencing (qPCR) in Huh7 cells. It is filed as cell-based, human. As to conditions: + 4000 nM SO1861-EMCH. The method, then:
as §4, §3

Where [8] appears, read: + 4000 nM trivalent-GalNAc-L-SO1861.

Where two headings read alike, the source gives them in different places. [BNANC] = BNA^NC bridged nucleic acid sugar; d = 2'-deoxy (DNA) Some results are limits rather than exact numbers.

As to `CC(=O)OC1C(C)OC(OC2C(C)OC(OC(=O)[C@]34CCC(C)(C)CC3C3=CCC5[C@@]6(C)CC[C@H](OC7OC(C(=O)O)C(O)C(OC8OCC(O)C(O)C8O)C7OC7OC(CO)C(O)C(O)C7O)[C@@](C)(C=O)C6CC[C@@]5(C)[C@]3(C)C[C@H]4O)C(OC3OC(C)C(OC4OCC(O)C(OC5OC(CO)C(O)C(O)C5O)C4O)C(O)C3O)C2O)C(O)C1OC1OCC(O)C(O)C1O` (stereo partly shown) [SO1861, reference compound], in data set [1] (read-out: SO1861 IC50 for CD71-saporin mediated cell killing, + 10 μM CD71-saporin (non-effective concentration)), the IC50 worked out at 200 nM.
With `CC(=O)OC1C(C)OC(OC2C(C)OC(OC(=O)[C@]34CCC(C)(C)CC3C3=CCC5[C@@]6(C)CC[C@H](OC7OC(C(=O)O)C(O)C(OC8OCC(O)C(O)C8O)C7OC7OC(CO)C(O)C(O)C7O)[C@@](C)(/C=N/NC(=O)CCCCCN7C(=O)C=CC7=O)C6CC[C@@]5(C)[C@]3(C)C[C@H]4O)C(OC3OC(C)C(OC4OCC(O)C(OC5OC(CO)C(O)C(O)C5O)C4O)C(O)C3O)C2O)C(O)C1OC1OCC(O)C(O)C1O` (stereo partly shown) [SO1861-EMCH], in data set [1] (primary hepatocytes, + 10 μM CD71-saporin), the “factor of potency increase when cell viability of liver cells is considered” value is approximately 10 factor.
Regarding “TrivalentGalNAc-ApoBBNA: conjugate of trivalent GalNAc and the ApoB antisense BNA oligonucleotide ApoBBNA (SEQ ID NO: 2); L or S linker not stated (antisense GCCTCAGTCTGCTTCGCACC; sugars from the 5' end [BNANC]5 d10 [BNANC]5, all phosphorothioate, methylation of C not given here; trivalent GalNAc conjugated via linker, attachment via 5'-thiol C6 linker implied)”, the “lowering of ApoB mRNA expression” value in data set [2] (+ 300 nM TrivalentGalNAc-SPT001, FIG. 31B) was “Neither TrivalentGalNAc-ApoBBNA, nor the combination of TrivalentGalNAc-ApoBBNA and TrivalentGalNAc-SPT001 induce lowering of the ApoB mRNA expression”; in data set [2] (alone, FIG. 31B) it was “Neither TrivalentGalNAc-ApoBBNA, nor the combination of TrivalentGalNAc-ApoBBNA and TrivalentGalNAc-SPT001 induce lowering of the ApoB mRNA expression”. Moreover, the “lowering of ApoB protein expression” value is “Neither TrivalentGalNAc-ApoBBNA, nor the combination of TrivalentGalNAc-ApoBBNA and TrivalentGalNAc-SPT001 induce lowering of the ApoB protein expression” in data set [3] (+ 300 nM TrivalentGalNAc-SPT001, FIG. 32B); “Neither TrivalentGalNAc-ApoBBNA, nor the combination of TrivalentGalNAc-ApoBBNA and TrivalentGalNAc-SPT001 induce lowering of the ApoB protein expression” in data set [3] (alone, FIG. 32B).
Regarding “trivalent-GalNAc-L-ApoBBNA: ApoBBNA (SEQ ID NO: 2) conjugated to trivalent-GalNAc, labile conjugation, FIG. 6 (antisense GCCTCAGTCTGCTTCGCACC; BNA oligo, pattern not given here, trivalent GalNAc via labile linker, position not given here)”, the “effect on cell viability” value was “without affecting cell viability significantly” in data set [1] (+ 250 nM (GalNAc)3-SO1861, FIG. 24 B) and “no effects on cell viability were observed” in data set [1] (alone, FIG. 24 B). The IC50 in data set [1] (read-out: IC50 decreased cell viability, + 2000 nM SO1861-EMCH, FIG. 24 B) was 600 nM; in data set [2], 700 nM; in data set [4] (+ 4000 nM SO1861-EMCH), 10 nM; in data set [4] (setting [8]), 50 nM; in data set [5] (+ 250 nM (GalNAc)3-SO1861), 15 nM; in data set [5] (+ 2000 nM SO1861-EMCH) it was 8 nM. The compound further displayed an IC50 in data set [5] (alone) of more than 1000 nM.
For “trivalent-GalNAc-L-HSP27BNA: HSP27BNA (SEQ ID NO: 1) conjugated to trivalent-GalNAc, labile conjugation, FIG. 6 (antisense GGCACAGCCAGTGGCG; sugars from the 5' end [BNANC]3 d10 [BNANC]3, all phosphorothioate, methylation of C not given here; further chemistry not fully specified)”, the IC50 in data set [6] turned out to be 0.1 nM; in data set [7], 3 nM.
On to “trivalent-GalNAc-S-ApoBBNA: ApoBBNA (SEQ ID NO: 2) conjugated to trivalent-GalNAc, stable conjugation, FIG. 7 (antisense GCCTCAGTCTGCTTCGCACC; sugars from the 5' end [BNANC]5 d10 [BNANC]5, all phosphorothioate, methylation of C not given here; further chemistry not fully specified)”, for which the IC50 in data set [2] was 700 nM; in data set [4] (+ 4000 nM SO1861-EMCH), 10 nM; in data set [4] (setting [8]), 50 nM.
For “trivalent-GalNAc-S-HSP27BNA: HSP27BNA (SEQ ID NO: 1) conjugated to trivalent-GalNAc, stable conjugation, FIG. 7 (GGCACAGCCAGTGGCG; sugars from the 5' end [BNANC]3 d10 [BNANC]3, all phosphorothioate, methylation of C not given here; further chemistry not fully specified)”, the 50% inhibitory concentration (IC50) turned out to be 0.1 nM in data set [6] and 3 nM in data set [7].

Values taken from patent US20230263897A1, “CONJUGATE OF GALNAC AND SAPONIN, […] COMPOSITION COMPRISING SAID CONJUGATE AND A GALNAC-OLIGO[…]” (SAPREME TECHNOLOGIES B.V., priority 2020, published 2023).
